Laboratory results published in paper PMC12675575, “A BRET biosensor for measuring uncompetitive engagement of PRMT5 complexes in cells” (Nature Communications, 2025).
Where “and” joins values, the source holds several entries; their conditions need not be identical. Equal entries are not always repeated. Where two headings read alike, the source gives them in different places.

Columns and labels:
NL-PRMT5 with WDR77 = molecular target: T1, NL-PRMT5 with WDR77 (Homo sapiens, UniProt O14744); assay: MRTX1719 kinetic washout (residence time) NanoBRET experiment in HEK293 cells; type: cell-based; conditions: 100uM MTA
T1 construct: host or cells: HEK293
Method: On the next day, cells were resuspended in a 15 mL falcon tube and adjusted to 2 × 10^5 cells/mL in assay medium (OptiMEM with 1% FBS). […] After incubation, cells were centrifuged at 300 × g for 5 min, medium was aspirated and cells were washed with pre-warmed assay medium, centrifuged again and adjusted to 2 × 10^5 cells/mL. For the full occupancy control, MTA and compound concentrations were maintained. 34 μL of cells were added per well in a seeded into 96-well non-binding surface-treated plates (Corning), followed by addition of 36 μL of Complete 2x Substrate (prepared by combining Nano-Glo Substrate and Extracellular NanoLuc Inhibitor in Opti-MEM, according to the manufacturer’s protocol (Promega)). Then, 2 μL of ETP CBH-002 at a final concentration of 30 nM were added before immediate readout at the PheraSTAR FSX for 6 h. Readout and analysis were conducted as described earlier.

NLuc-PRMT5 = NLuc-PRMT5 (Homo sapiens, UniProt O14744); assay: BRET probe sensitivity to exogenous MTA in live HEK293 cells expressing NLuc-PRMT5; type: cell-based; design: host or cells: HEK293 (live cells; digitonin lysate for the SAM titration); conditions: for remaining activity at […] / remaining activity at 1000 µM: Log([MTA]), room temperature, read-out: Normalized BRET probe signal; for remaining activity at 1000 µM: uM 3.00
Method: To measure BRET probe sensitivity to both MAT2A inhibition and exogenous MTA in live cells, HEK293 cells were pre-treated with 30 nM CBH-002 and incubated at 37 °C and 5% CO2 for 2 h. For MAT2A inhibition, a 20 µM, 3-fold, 11 pt titration series of Compound A (Selleckchem) was added to wells. Cells were incubated either at 37 °C (Fig. 3D) or room temperature (Fig. S3D). Data were normalized using Eq. (2), where BRETMIN = instrument background (no CBH-002), and BRETMAX = 2 h vehicle treatment, and fit curves were generated using Eq. (1). For MTA sensitivity cells were treated with a 1 mM, 11 pt, 2-fold series of MTA (Sigma) and cells were incubated at room temperature for 2 h, reading in 15 min intervals. Data were normalized using Eq. (2), where BRETMIN = instrument background (no CBH-002), and BRETMAX = 2 h + vehicle treatment. Data were fit with Eq. (1).

Chain of NLuc-PRMT5 (O14744 whole entry): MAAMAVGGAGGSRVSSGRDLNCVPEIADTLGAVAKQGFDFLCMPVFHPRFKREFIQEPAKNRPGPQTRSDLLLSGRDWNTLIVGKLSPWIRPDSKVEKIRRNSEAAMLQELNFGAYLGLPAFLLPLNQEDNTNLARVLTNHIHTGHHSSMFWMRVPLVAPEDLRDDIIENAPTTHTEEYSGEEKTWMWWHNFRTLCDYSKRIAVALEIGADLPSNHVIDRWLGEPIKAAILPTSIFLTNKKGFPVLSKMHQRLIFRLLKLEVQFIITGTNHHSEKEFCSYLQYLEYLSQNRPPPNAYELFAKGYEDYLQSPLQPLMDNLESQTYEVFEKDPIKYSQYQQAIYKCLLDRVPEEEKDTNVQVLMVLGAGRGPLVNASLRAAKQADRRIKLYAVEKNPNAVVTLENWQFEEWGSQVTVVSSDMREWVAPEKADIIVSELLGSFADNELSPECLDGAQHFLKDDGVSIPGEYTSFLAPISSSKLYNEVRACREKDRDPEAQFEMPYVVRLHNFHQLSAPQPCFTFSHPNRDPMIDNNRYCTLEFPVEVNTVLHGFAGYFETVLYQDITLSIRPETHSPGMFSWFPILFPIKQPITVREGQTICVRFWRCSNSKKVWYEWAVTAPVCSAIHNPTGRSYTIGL
Chain of NLuc-PRMT5 (Q9BQA1 whole entry partner): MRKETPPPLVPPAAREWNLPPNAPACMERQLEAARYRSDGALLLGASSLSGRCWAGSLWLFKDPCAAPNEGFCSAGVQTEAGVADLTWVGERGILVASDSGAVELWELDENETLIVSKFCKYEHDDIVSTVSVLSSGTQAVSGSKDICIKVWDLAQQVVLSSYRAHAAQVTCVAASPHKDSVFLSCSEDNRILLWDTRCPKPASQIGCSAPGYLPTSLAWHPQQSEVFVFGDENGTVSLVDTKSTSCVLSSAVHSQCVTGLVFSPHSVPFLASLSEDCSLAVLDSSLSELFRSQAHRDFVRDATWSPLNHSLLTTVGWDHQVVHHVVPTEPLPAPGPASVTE
T1 sequence (O14744 whole entry): as the sequence (O14744 whole entry) above
T1 sequence (Q9BQA1 whole entry partner): as the sequence (Q9BQA1 whole entry partner) above

For `CSC[C@H]1O[C@@H](n2cnc3c(N)ncnc32)[C@H](O)[C@@H]1O` [MTA, methylthioadenosine], the “BRET, Figure S5I” value (NL-PRMT5 with WDR77; time 0 min) was 0.1105 and 0.1241 and 0.1192 and 0.1078 and 0.1088 and 0.1195 and 0.1138 and 0.1151, the “BRET, Figure S5I” value (NL-PRMT5 with WDR77; time 6 min) was 0.3119 and 0.3036 and 0.3616 and 0.2837 and 0.2843 and 0.315 and 0.3325 and 0.3197 and the “BRET, Figure S5I” value (NL-PRMT5 with WDR77; time 12 min) was 0.5293 and 0.4857 and 0.5913 and 0.4586 and 0.456 and 0.5044 and 0.5405 and 0.5123. The “BRET, Figure S5I” value (NL-PRMT5 with WDR77; time 18 min) was 0.7285 and 0.6611 and 0.7995 and 0.6306 and 0.6158 and 0.6735 and 0.7234 and 0.6889, the “BRET, Figure S5I” value (NL-PRMT5 with WDR77; time 24 min) was 0.8959 and 0.8098 and 0.9637 and 0.7786 and 0.7595 and 0.8227 and 0.869 and 0.8404 and the “BRET, Figure S5I” value (NL-PRMT5 with WDR77; time 30 min) was 1.03 and 0.937 and 1.09 and 0.9086 and 0.8803 and 0.9486 and 0.9887 and 0.9612. For the same compound, the “BRET, Figure S5I” value (NL-PRMT5 with WDR77; time 36 min) was 1.134 and 1.042 and 1.191 and 1.015 and 0.9796 and 1.049 and 1.086 and 1.061, the “BRET, Figure S5I” value (NL-PRMT5 with WDR77; time 42 min) was 1.201 and 1.125 and 1.257 and 1.0947 and 1.057 and 1.127 and 1.168 and 1.1428 and the “BRET, Figure S5I” value (NL-PRMT5 with WDR77; time 48 min) was 1.264 and 1.1938 and 1.301 and 1.164 and 1.1261 and 1.183 and 1.221 and 1.192. The “BRET, Figure S5I” value (NL-PRMT5 with WDR77; time 54 min) was 1.305 and 1.245 and 1.342 and 1.215 and 1.178 and 1.2272 and 1.267 and 1.255, the “BRET, Figure S5I” value (NL-PRMT5 with WDR77; time 60 min) was 1.34 and 1.2815 and 1.366 and 1.252 and 1.226 and 1.27 and 1.304 and 1.278 and the “BRET, Figure S5I” value (NL-PRMT5 with WDR77; time 66 min) was 1.37 and 1.322 (2×) and 1.406 and 1.285 and 1.248 and 1.298 and 1.329. The “BRET, Figure S5I” value (NL-PRMT5 with WDR77; time 72 min) was 1.398 and 1.341 and 1.428 and 1.319, the remaining activity at […] (NLuc-PRMT5; HEK293, 0.5 h, uM 0.29, Time (min) 30) was 98.1% and the remaining activity at […] (NLuc-PRMT5; HEK293, 0.5 h, uM 0.59, Time (min) 30) was 97.9%. The remaining activity at […] (NLuc-PRMT5; HEK293, 0.5 h, uM 0.89, Time (min) 30) was 99.1%, the remaining activity at […] (NLuc-PRMT5; HEK293, 0.5 h, uM 1.19, Time (min) 30) was 97.4% and the remaining activity at […] (NLuc-PRMT5; HEK293, 0.5 h, uM 1.49, Time (min) 30) was 95.2%. For the same compound, the remaining activity at […] (NLuc-PRMT5; HEK293, 0.5 h, uM 1.80, Time (min) 30) was 93%, the remaining activity at […] (NLuc-PRMT5; HEK293, 0.5 h, uM 2.10, Time (min) 30) was 90.2% and the remaining activity at […] (NLuc-PRMT5; HEK293, 0.5 h, uM 2.40, Time (min) 30) was 87.8%. The remaining activity at […] (NLuc-PRMT5; HEK293, 0.5 h, uM 2.70, Time (min) 30) was 86.4%, the remaining activity at 1000 µM (NLuc-PRMT5; HEK293, 0.5 h, Time (min) 30) was 85.4% and the remaining activity at […] (NLuc-PRMT5; HEK293, 1 h, uM 0.29, Time (min) 60) was 99.2%. For the same compound, the remaining activity at […] (NLuc-PRMT5; HEK293, 1 h, uM 0.59, Time (min) 60) was 99.7%, the remaining activity at […] (NLuc-PRMT5; HEK293, 1 h, uM 0.89, Time (min) 60) was 98.1% and the remaining activity at […] (NLuc-PRMT5; HEK293, 1 h, uM 1.19, Time (min) 60) was 96.8%. The remaining activity at […] (NLuc-PRMT5; HEK293, 1 h, uM 1.49, Time (min) 60) was 94.8%, the remaining activity at […] (NLuc-PRMT5; HEK293, 1 h, uM 1.80, Time (min) 60) was 91.1% and the remaining activity at […] (NLuc-PRMT5; HEK293, 1 h, uM 2.10, Time (min) 60) was 87.7%. For the same compound, the remaining activity at […] (NLuc-PRMT5; HEK293, 1 h, uM 2.40, Time (min) 60) was 84.6%, the remaining activity at […] (NLuc-PRMT5; HEK293, 1 h, uM 2.70, Time (min) 60) was 79.9% and the remaining activity at 1000 µM (NLuc-PRMT5; HEK293, 1 h, Time (min) 60) was 78.1%. The remaining activity at […] (NLuc-PRMT5; HEK293, 2 h, uM 0.29, Time (min) 120) was 98.3%, the remaining activity at […] (NLuc-PRMT5; HEK293, 2 h, uM 0.59, Time (min) 120) was 98.5% and the remaining activity at […] (NLuc-PRMT5; HEK293, 2 h, uM 0.89, Time (min) 120) was 97.2%. It also gave a remaining activity at […] (NLuc-PRMT5; HEK293, 2 h, uM 1.19, Time (min) 120) of 96%, a remaining activity at […] (NLuc-PRMT5; HEK293, 2 h, uM 1.49, Time (min) 120) of 93.7% and a remaining activity at […] (NLuc-PRMT5; HEK293, 2 h, uM 1.80, Time (min) 120) of 90%. The remaining activity at […] (NLuc-PRMT5; HEK293, 2 h, uM 2.10, Time (min) 120) was 85.1%, the remaining activity at […] (NLuc-PRMT5; HEK293, 2 h, uM 2.40, Time (min) 120) was 81.7% and the remaining activity at […] (NLuc-PRMT5; HEK293, 2 h, uM 2.70, Time (min) 120) was 75.7%. The remaining activity at 1000 µM (NLuc-PRMT5; HEK293, 2 h, Time (min) 120) was 72.8% and the “Time to plateau of BRET inhibition” value (NLuc-PRMT5; live HEK293, room temperature) was ~ 2 h.
